Source: ChEMBL document CHEMBL5042477, “Potent Cyclic Peptide Inhibitors of FXIIa Discovered by mRNA Display with Genetic Code Reprogramming” (J Med Chem, 2021)
Activity calls are given as the source filed them. The calls are words filed in the database; no cut-off is given here. Where a SMILES comes first, the peptide text is derived from it. Bridges are numbered along the chain shown (N, C = ends).

Legend:
[1] = molecular target: T1, Coagulation factor XII (Homo sapiens) (UniProt P00748); assay: Inhibition of human factor 12a using H-D-Pro-Phe-Arg-p-nitroanilide as chromogenic substrate assessed as liberation of p-nitroaniline at […] measured every 5 mins for 60 min by multimode plate reader analysis
T1 sequence (whole entry): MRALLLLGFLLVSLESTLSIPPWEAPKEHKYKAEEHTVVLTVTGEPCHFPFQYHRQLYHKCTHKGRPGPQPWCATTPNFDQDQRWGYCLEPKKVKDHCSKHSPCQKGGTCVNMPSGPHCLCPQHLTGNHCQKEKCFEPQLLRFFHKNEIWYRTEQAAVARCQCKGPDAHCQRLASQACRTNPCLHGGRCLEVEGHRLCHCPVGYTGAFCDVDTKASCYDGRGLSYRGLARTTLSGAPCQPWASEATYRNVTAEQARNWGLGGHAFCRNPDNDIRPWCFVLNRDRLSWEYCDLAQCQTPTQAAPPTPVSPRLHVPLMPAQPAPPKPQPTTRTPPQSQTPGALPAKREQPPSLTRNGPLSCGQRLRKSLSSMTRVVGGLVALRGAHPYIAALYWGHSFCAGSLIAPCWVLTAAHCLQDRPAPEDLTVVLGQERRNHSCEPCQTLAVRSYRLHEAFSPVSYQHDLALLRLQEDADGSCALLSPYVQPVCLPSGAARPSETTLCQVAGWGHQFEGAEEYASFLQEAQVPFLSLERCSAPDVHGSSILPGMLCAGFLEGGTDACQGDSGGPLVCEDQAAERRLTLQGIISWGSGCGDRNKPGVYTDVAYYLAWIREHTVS

[2] = molecular target: T1, Coagulation factor XII (Homo sapiens); assay: Inhibition of human factor 12a using H-D-Pro-Phe-Arg-p-nitroanilide as chromogenic substrate assessed as liberation of p-nitroaniline at 2 mM measured every 5 mins for 60 min by multimode plate reader analysis
Trypsin = Trypsin (Homo sapiens, UniProt P07477+P07478+P35030); assay: Inhibition of trypsin (unknown origin); assay type: protein assay
Plasma [3] = assay: Anticoagulant activity in pooled human plasma assessed as reduction in ellagic acid induced thrombin generation using Z-GGR-AMC as fluorogenic substrate by calibrated automated thrombogram analysis; assay type: functional, cell-free
Coagulation factor VII = molecular target: T2, Coagulation factor VII (Homo sapiens, UniProt P08709); assay: Inhibition of factor 7a (unknown origin)
T2 sequence (P08709 whole entry): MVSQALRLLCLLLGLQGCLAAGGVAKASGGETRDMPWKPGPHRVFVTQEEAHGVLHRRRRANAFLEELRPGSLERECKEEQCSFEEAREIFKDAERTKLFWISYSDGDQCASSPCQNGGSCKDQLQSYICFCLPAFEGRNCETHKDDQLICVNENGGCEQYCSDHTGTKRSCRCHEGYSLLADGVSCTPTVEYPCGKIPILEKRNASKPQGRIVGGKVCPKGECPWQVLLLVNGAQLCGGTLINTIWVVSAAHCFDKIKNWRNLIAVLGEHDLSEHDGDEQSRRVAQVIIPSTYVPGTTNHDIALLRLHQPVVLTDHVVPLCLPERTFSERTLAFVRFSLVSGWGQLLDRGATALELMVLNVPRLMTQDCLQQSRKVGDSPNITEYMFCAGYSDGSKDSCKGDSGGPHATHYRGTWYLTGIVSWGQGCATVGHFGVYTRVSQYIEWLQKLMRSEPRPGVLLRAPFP

[4] = molecular target: Urokinase-type plasminogen activator (Homo sapiens, UniProt P00749); assay: Inhibition of Urokinase-type plasminogen activator (unknown origin)
Plasminogen = Plasminogen (Homo sapiens, UniProt P00747); assay: Inhibition of plasmin (unknown origin)
[5] = molecular target: T1, Coagulation factor XII (Homo sapiens); assay: Inhibition of human factor 12a activation in citrated pooled human plasma assessed as inhibition of bradykinin release incubated for 10 mins followed by kaolin addition and measured after 15 mins by ELISA; assay type: cell-free; conditions: dose 1-200 µM, time 25.0 min
Plasma [6] = assay: Anticoagulant activity in pooled human plasma assessed as prolongation of activated partial thromboplastin time at 12.5 uM incubated for 7 mins; assay type: functional, cell-free
Coagulation factor XII [7] = molecular target: T3, Coagulation factor XII (Homo sapiens, UniProt P00748); assay: Inhibition of human factor 12a using H-D-Pro-Phe-Arg-p-nitroanilide as chromogenic substrate assessed as liberation of p-nitroaniline measured every 5 mins for 60 min by multimode plate reader analysis
T3 sequence (P00748 whole entry): T1 sequence (whole entry)

Plasma kallikrein = Plasma kallikrein (Homo sapiens, UniProt P03952); assay: Inhibition of plasma kallikrein (unknown origin); assay type: cell-free
Coagulation factor X = Coagulation factor X (Homo sapiens, UniProt P00742); assay: Inhibition of human factor 10a using methoxycarbonyl-D-Nle-Gly-Arg-pNA as substrate measured after 60 mins by microplate reader analysis
Plasma [8] = assay: Anticoagulant activity in FXII-deficient human plasma assessed as effect on total thrombin generation using Z-GGR-AMC as fluorogenic substrate at 8 uM by calibrated automated thrombogram analysis; assay type: functional, cell-free
Coagulation factor XII [9] = molecular target: T3, Coagulation factor XII; assay: Inhibition of human factor 12a using H-D-Pro-Phe-Arg-p-nitroanilide as chromogenic substrate assessed as liberation of p-nitroaniline in presence of BSA measured every 5 mins for 60 min by multimode plate reader analysis
[10] = Stability in pooled human plasma measured upto 24 hrs by UPLC-MS analysis; assay type: ADME, cell-free
Plasma [11] = assay: Anticoagulant activity in pooled human plasma assessed as prolongation of prothrombin time at 12.5 uM incubated for 7 mins; assay type: functional, cell-free
Homo sapiens = organism: Homo sapiens; assay: Selectivity index, ratio of IC50 for inhibition of human factor 12a using H-D-Pro-Phe-Arg-p-nitroanilide as chromogenic substrate to IC50 for inhibition of human factor 10a using methoxycarbonyl-D-Nle-Gly-Arg-pNA as substrate
Plasma [12] = assay: Anticoagulant activity in pooled human plasma assessed as reduction in ellagic acid induced thrombin generation using Z-GGR-AMC as fluorogenic substrate at 4 uM by calibrated automated thrombogram analysis; assay type: functional, cell-free
Plasma [13] = assay: Anticoagulant activity in pooled human plasma assessed as prolongation of activated partial thromboplastin time at 1.25 uM incubated for 7 mins; assay type: functional, cell-free

Plasma kallikrein, sequence (P03952 20-390 limits assumed): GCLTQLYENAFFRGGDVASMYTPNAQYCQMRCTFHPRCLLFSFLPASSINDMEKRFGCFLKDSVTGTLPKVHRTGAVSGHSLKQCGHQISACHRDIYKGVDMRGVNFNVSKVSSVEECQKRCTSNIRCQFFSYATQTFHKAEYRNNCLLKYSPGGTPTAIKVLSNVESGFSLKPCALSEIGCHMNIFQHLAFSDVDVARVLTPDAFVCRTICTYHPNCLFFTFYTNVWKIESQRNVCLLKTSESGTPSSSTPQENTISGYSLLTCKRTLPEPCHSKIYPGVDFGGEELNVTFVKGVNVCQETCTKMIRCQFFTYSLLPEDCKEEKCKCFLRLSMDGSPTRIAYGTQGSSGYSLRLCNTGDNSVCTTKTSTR
Plasma kallikrein, sequence (P03952 391-638 limits assumed): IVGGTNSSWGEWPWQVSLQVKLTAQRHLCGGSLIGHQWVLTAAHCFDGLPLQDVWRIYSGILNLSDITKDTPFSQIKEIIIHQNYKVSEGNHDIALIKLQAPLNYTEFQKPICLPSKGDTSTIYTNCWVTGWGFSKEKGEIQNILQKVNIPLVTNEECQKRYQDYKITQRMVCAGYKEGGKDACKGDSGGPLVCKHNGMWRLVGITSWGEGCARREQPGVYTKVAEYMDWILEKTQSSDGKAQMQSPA
Plasminogen, sequence (P00747 97-580 limits assumed): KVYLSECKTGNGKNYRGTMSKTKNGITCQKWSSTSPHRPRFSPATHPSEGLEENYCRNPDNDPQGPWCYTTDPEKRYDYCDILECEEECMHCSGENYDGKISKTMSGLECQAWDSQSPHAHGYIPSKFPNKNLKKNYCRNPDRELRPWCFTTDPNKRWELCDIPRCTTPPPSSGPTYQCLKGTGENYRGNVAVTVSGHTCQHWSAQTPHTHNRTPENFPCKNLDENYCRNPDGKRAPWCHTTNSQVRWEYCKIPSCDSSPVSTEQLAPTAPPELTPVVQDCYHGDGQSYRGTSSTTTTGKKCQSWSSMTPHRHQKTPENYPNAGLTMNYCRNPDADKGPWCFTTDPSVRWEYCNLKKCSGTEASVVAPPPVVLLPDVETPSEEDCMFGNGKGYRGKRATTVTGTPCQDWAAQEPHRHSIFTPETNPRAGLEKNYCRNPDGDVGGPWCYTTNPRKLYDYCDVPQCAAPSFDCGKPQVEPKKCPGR
Plasminogen, sequence (P00747 581-810 limits assumed): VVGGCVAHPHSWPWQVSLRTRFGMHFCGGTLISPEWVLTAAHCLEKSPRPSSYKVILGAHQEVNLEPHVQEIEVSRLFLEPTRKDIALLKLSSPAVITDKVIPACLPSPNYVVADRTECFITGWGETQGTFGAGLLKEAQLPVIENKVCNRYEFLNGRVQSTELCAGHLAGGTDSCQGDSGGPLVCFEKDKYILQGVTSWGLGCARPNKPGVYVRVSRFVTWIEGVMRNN
Coagulation factor X, sequence (P00742 41-179 limits assumed): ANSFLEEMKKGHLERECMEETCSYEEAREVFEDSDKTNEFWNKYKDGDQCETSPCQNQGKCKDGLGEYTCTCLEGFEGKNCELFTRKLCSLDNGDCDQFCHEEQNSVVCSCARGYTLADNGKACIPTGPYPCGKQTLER
Coagulation factor X, sequence (P00742 235-488 limits assumed): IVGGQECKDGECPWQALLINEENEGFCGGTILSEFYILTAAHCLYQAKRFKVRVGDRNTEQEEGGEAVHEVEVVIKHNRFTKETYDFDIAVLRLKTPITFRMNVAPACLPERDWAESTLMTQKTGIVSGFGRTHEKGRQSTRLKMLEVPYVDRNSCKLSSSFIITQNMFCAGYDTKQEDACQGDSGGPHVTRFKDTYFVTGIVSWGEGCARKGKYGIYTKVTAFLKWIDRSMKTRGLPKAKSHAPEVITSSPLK

| Compound | IC50 (Trypsin) [nM] | EC50 (Plasma [3]) [nM] | IC50 (Coagulation factor VII) [nM] | IC50 [4] [nM] | IC50 (Plasminogen) [nM] | Activity (Plasma [6]) | IC50 (Coagulation factor XII [7]) [nM] | IC50 (Plasma kallikrein) [nM] | IC50 (Coagulation factor X) [nM] | Activity (Plasma [8]) | IC50 (Coagulation factor XII [9]) [nM] | Activity (Plasma [11]) | Ratio IC50 (Homo sapiens) | other results |
| --- | --- | --- | --- | --- | --- | --- | --- | --- | --- | --- | --- | --- | --- | --- |
| CC(C)C[C@@H]1NC(=O)[C@H](Cc2ccc(O)cc2)NC(=O)CSC[C@@H](C(N)=O)NC(=O)CNC(=O)CNC(=O)[C@H](CCCNC(=N)N)NC(=O)[C@H](CC(=O)O)NC(=O)[C@H](CCCCN)NC(=O)[C@@H]2CCCN2C(=O)[C@H](CCCNC(=N)N)NC(=O)[C@H](Cc2ccccc2)NC(=O)[C@@H](CCCNC(=N)N)NC1=O | – | – | – | – | – | – | – | – | – | – | – | – | – | inhibition [1]: inactive |
| Ac-YLRFR-NH2 | – | – | – | – | – | – | – | – | – | – | – | – | – | inhibition [2]: inactive |
| CC(C)C[C@@H]1NC(=O)[C@H](Cc2ccc(O)cc2)NC(=O)CSC[C@@H](C(N)=O)NC(=O)CNC(=O)CNC(=O)[C@H](CCC(N)=O)NC(=O)[C@H](CC(N)=O)NC(=O)[C@H]([C@@H](C)O)NC(=O)[C@@H]2CCCN2C(=O)[C@H](CCCCN)NC(=O)[C@H](CC(C)C)NC(=O)[C@H](CCCNC(=N)N)NC1=O ({CH2CO}-YLRLKPTNQGGC-NH2; thioether N-12) | 12000 | 2800 | > 100000 | > 100000 | > 100000 | Active | 331 | > 100000 | > 100000 | inactive | 611 | – | – | inhibition [5]: Dose-Dependent Effect; Stability [10]: Stable |
| CC[C@H](C)[C@@H]1NC(=O)[C@H](Cc2c[nH]cn2)NC(=O)[C@H](CCCCN)NC(=O)[C@H](Cc2ccccc2)NC(=O)[C@H](CCCNC(=N)N)NC(=O)[C@H](CC(C)C)NC(=O)[C@H](Cc2ccc(O)cc2)NC(=O)CSC[C@@H](C(N)=O)NC(=O)CNC(=O)CNC(=O)[C@H](CC(C)C)NC(=O)[C@H](CO)NC1=O ({CH2CO}-YLRFKHISLGGC-NH2; thioether N-12) | – | 3200 | – | – | – | Active | 234 | – | 17000 | inactive | 311 | Active | 100 | – |
| CC(C)C[C@@H]1NC(=O)[C@H](Cc2ccc(O)cc2)NC(=O)CSC[C@@H](C(=O)N[C@@H](CCCNC(=N)N)C(=O)N[C@@H](CCCNC(=N)N)C(=O)N[C@@H](C)C(=O)N2CCC[C@H]2C(=O)N[C@@H](CC(N)=O)C(=O)N[C@@H](CO)C(N)=O)NC(=O)[C@H](CC(C)C)NC(=O)[C@H]([C@@H](C)O)NC(=O)[C@H](Cc2ccccc2)NC(=O)[C@H](CCCNC(=N)N)NC1=O ({CH2CO}-YLRFTLCRRAPNS-NH2; thioether N-7) | 61000 | 1400 | > 100000 | > 100000 | 61000 | Active | 97 | 43000 | 35000 | – | 157 | Active | 100 | – |
| CC[C@H](C)[C@@H]1NC(=O)[C@H](C)NC(=O)[C@H](CCCCN)NC(=O)[C@H](Cc2ccccc2)NC(=O)[C@H](CCCNC(=N)N)NC(=O)[C@H](CC(C)C)NC(=O)[C@H](Cc2ccc(O)cc2)NC(=O)CSC[C@@H](C(N)=O)NC(=O)CNC(=O)CNC(=O)[C@H](CC(C)C)NC(=O)[C@H](CO)NC1=O ({CH2CO}-YLRFKAISLGGC-NH2; thioether N-12) | – | – | – | – | – | – | 180 | – | 41000 | – | – | – | – | – |
| CC[C@H](C)[C@@H]1NC(=O)[C@H](CC(C)C)NC(=O)[C@H](Cc2ccc(O)cc2)NC(=O)CSC[C@@H](C(=O)N[C@H](C(=O)N[C@@H](CO)C(=O)N[C@@H](CCCNC(=N)N)C(=O)N[C@@H](CCCNC(=N)N)C(=O)N[C@@H](C)C(=O)N[C@@H](Cc2ccccc2)C(=O)N[C@@H](Cc2ccccc2)C(=O)N[C@H](C(=O)N[C@@H](CC(=O)O)C(=O)N[C@@H](CCC(N)=O)C(=O)N[C@@H](CO)C(N)=O)[C@@H](C)O)C(C)C)NC1=O ({CH2CO}-YLICVSRRAFFTDQS-NH2; thioether N-4) | – | – | – | – | – | – | > 100000 | – | > 100000 | – | – | – | – | – |
| CC(C)C[C@@H]1NC(=O)[C@H](CCC(N)=O)NC(=O)[C@H](CCCNC(=N)N)NC(=O)[C@@H]2CSCCC(=O)N3CN(CN(C3)C(=O)CCSC[C@H](NC(=O)[C@@H](N)CCCNC(=N)N)C(=O)N[C@@H](Cc3ccccc3)C(=O)N[C@@H](CCCNC(=N)N)C(=O)N[C@@H](CC(C)C)C(=O)N3CCC[C@H]3C(=O)N2)C(=O)CCSC[C@@H](C(=O)N[C@@H](CCCNC(=N)N)C(=O)O)NC(=O)[C@H](CCCNC(=N)N)NC1=O | – | – | – | – | – | – | 142 | – | – | – | 173 | – | – | – |
| CC(C)C[C@@H]1NC(=O)[C@H](Cc2ccc(O)cc2)NC(=O)CSC[C@@H](C(N)=O)NC(=O)CNC(=O)CNC(=O)[C@H](CCCNC(=N)N)NC(=O)[C@H](CC(=O)O)NC(=O)[C@H](CCCCN)NC(=O)[C@@H]2CCCN2C(=O)[C@H](CCCNC(=N)N)NC(=O)[C@H](Cc2ccccc2)NC(=O)[C@H](CCCNC(=N)N)NC1=O | > 31000 | 700 | > 100000 | > 100000 | > 100000 | Active | 62 | > 100000 | 59000 | inactive | 61 | Active | 100 | Activity (Plasma [12]): Active; Activity (Plasma [13]): Active; inhibition [5]: Dose-Dependent Effect; Stability [10]: Stable |
| CC(C)C[C@H](NC(=O)[C@H](C)NC(=O)[C@H](CO)NC(=O)[C@H](CCC(=O)O)NC(=O)[C@H](Cc1ccc(O)cc1)NC(=O)[C@H](CCCNC(=N)N)NC(=O)[C@@H]1CSCC(=O)N[C@@H](Cc2ccc(O)cc2)C(=O)N[C@@H](CC(C)C)C(=O)N[C@@H](CCCNC(=N)N)C(=O)N[C@@H](Cc2ccccc2)C(=O)N[C@@H]([C@@H](C)O)C(=O)N[C@@H](CC(C)C)C(=O)N1)C(=O)N[C@@H](CO)C(N)=O ({CH2CO}-YLRFTLCRYESALS-NH2; thioether N-7) | – | – | – | – | – | – | 372 | – | 2200 | – | 673 | – | – | – |
